# Reference: US20110098177A1, “METHODS AND COMPOSITIONS OF PLANT MICRONUTRIENTS” (NOVUS INTERNATIONAL INC., priority 2006, published 2011)
# “Also recorded” adds a separate entry of the source.
# Columns and labels:
# Type in all cases: in vivo
# Tygress tomato plants [1] = test: Foliar nutrient concentration 2 weeks after treatment, greenhouse tomato (Examples 4-6); settings: for B concentration in tomato leaves / Ca concentration in tomato leaves / Cu concentration in tomato leaves / Fe concentration in tomato leaves / K concentration in tomato leaves / Mg concentration in tomato leaves / Mn concentration in tomato leaves / N concentration in tomato leaves / P concentration in tomato leaves: 2 weeks after Zn treatment; for Foliar Zn concentration: tomato leaves 2 weeks after Zn treatment
# How it was run: (§1)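 Tygress tomato in 2-gallon pots of micronutrient-poor medium (negligible Fe, Zn, Mn, Cu) in greenhouse; foliar treatments at 5 WAT in 200 mL/plant water with non-ionic surfactant. Newest non-applied leaves analysed 2 weeks before and after treatment; marketable fruit harvested three times from 10 WAT, graded. RCBD, 6 replications, LSD 5%.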
# Tygress tomato plants [2] = test: Yields of tomato fruits, greenhouse (Examples 4-6); settings: for Marketable yield: tomato fruits
# How it was run: as §1
# Tygress tomato plants [3] = test: Foliar nutrient concentration at 6 WAT, open-field tomato (Examples 7-10); settings: 6 WAT, open field
# How it was run: (§2)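 Open-field 2008 trial, Balm FL; 'Tygress' tomato and 'Patriot' pepper transplants on drip-fed raised beds. Foliar micronutrient sprays at 3 and 5 WAT (BIOX-CM at 4 and 5), 60 gal/acre with surfactant. Youngest mature leaves sampled 6 WAT; RCBD, 5 replications, Fisher's LSD 5%.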
# [4] = test system: Patriot bell pepper plants; test: Foliar nutrient concentration at 6 WAT, open-field bell pepper (Examples 7-10); settings: 6 WAT, open field
# How it was run: as §2
# [5] = test system: Patriot bell pepper plants; test: Marketable yield, open-field bell pepper (Examples 7-10); settings: open field; lb/acre/season: BIOX-Z 1.3, Cu 6.7, M 23.0, Fe 3.2, INC 4.0, INZ 0.6, CM 10.0, GZ 1.0, GF 4.0, EDZ 1.4, EDM 23.0
# How it was run: as §2
# Tygress tomato plants [6] = test: Nutrient concentration of tomato fruits at 10 WAT, open field (Examples 7-10); settings: 10 WAT; open field; product rate as Table 17
# How it was run: as §2
compound,measurement,setting,value
"CSCCC(O)C(=O)[O-].CSCCC(O)C(=O)[O-].[Zn+2] (stereo not shown) [BIOX-Z, Zn-HMTBA]",Foliar Zn concentration compared with control (in words),"Tygress tomato plants [1]; 0.8 lb/acre, 2 weeks after application",significantly higher than control
same,B concentration in tomato leaves,Tygress tomato plants [1]; Zn 0.1 lb/acre,25 ppm
same,Ca concentration in tomato leaves,Tygress tomato plants [1]; Zn 0.1 lb/acre,0.6%
same,Cu concentration in tomato leaves,Tygress tomato plants [1]; Zn 0.1 lb/acre,8 ppm
same,Fe concentration in tomato leaves,Tygress tomato plants [1]; Zn 0.1 lb/acre,98 ppm
same,K concentration in tomato leaves,Tygress tomato plants [1]; Zn 0.1 lb/acre,3.5%
same,Mg concentration in tomato leaves,Tygress tomato plants [1]; Zn 0.1 lb/acre,0.3%
same,Mn concentration in tomato leaves,Tygress tomato plants [1]; Zn 0.1 lb/acre,55 ppm
same,N concentration in tomato leaves,Tygress tomato plants [1]; Zn 0.1 lb/acre,3.6%
same,P concentration in tomato leaves,Tygress tomato plants [1]; Zn 0.1 lb/acre,0.5%
same,Foliar Zn concentration,Tygress tomato plants [1]; Zn 0.1 lb/acre,86 bc ppm
same,B concentration in tomato leaves,Tygress tomato plants [1]; Zn 0.2 lb/acre,27 ppm
same,Ca concentration in tomato leaves,Tygress tomato plants [1]; Zn 0.2 lb/acre,0.6%
same,Cu concentration in tomato leaves,Tygress tomato plants [1]; Zn 0.2 lb/acre,6 ppm
same,Fe concentration in tomato leaves,Tygress tomato plants [1]; Zn 0.2 lb/acre,88 ppm
same,K concentration in tomato leaves,Tygress tomato plants [1]; Zn 0.2 lb/acre,3.7%
same,Mg concentration in tomato leaves,Tygress tomato plants [1]; Zn 0.2 lb/acre,0.3%
same,Mn concentration in tomato leaves,Tygress tomato plants [1]; Zn 0.2 lb/acre,56 ppm
same,N concentration in tomato leaves,Tygress tomato plants [1]; Zn 0.2 lb/acre,3.3%
same,P concentration in tomato leaves,Tygress tomato plants [1]; Zn 0.2 lb/acre,0.5%
same,Foliar Zn concentration,Tygress tomato plants [1]; Zn 0.2 lb/acre,112 bc ppm
same,B concentration in tomato leaves,Tygress tomato plants [1]; Zn 0.4 lb/acre,28 ppm
same,Ca concentration in tomato leaves,Tygress tomato plants [1]; Zn 0.4 lb/acre,0.6%
same,Cu concentration in tomato leaves,Tygress tomato plants [1]; Zn 0.4 lb/acre,6 ppm
same,Fe concentration in tomato leaves,Tygress tomato plants [1]; Zn 0.4 lb/acre,88 ppm
same,K concentration in tomato leaves,Tygress tomato plants [1]; Zn 0.4 lb/acre,3.5%
same,Mg concentration in tomato leaves,Tygress tomato plants [1]; Zn 0.4 lb/acre,0.3%
same,Mn concentration in tomato leaves,Tygress tomato plants [1]; Zn 0.4 lb/acre,59 ppm
same,N concentration in tomato leaves,Tygress tomato plants [1]; Zn 0.4 lb/acre,3.4%
same,P concentration in tomato leaves,Tygress tomato plants [1]; Zn 0.4 lb/acre,0.5%
same,Foliar Zn concentration,Tygress tomato plants [1]; Zn 0.4 lb/acre,128 bc ppm
same,B concentration in tomato leaves,Tygress tomato plants [1]; Zn 0.8 lb/acre,25 ppm
same,Ca concentration in tomato leaves,Tygress tomato plants [1]; Zn 0.8 lb/acre,0.5%
same,Cu concentration in tomato leaves,Tygress tomato plants [1]; Zn 0.8 lb/acre,4 ppm
same,Fe concentration in tomato leaves,Tygress tomato plants [1]; Zn 0.8 lb/acre,93 ppm
same,K concentration in tomato leaves,Tygress tomato plants [1]; Zn 0.8 lb/acre,3.4%
same,Mg concentration in tomato leaves,Tygress tomato plants [1]; Zn 0.8 lb/acre,0.3%
same,Mn concentration in tomato leaves,Tygress tomato plants [1]; Zn 0.8 lb/acre,54 ppm
same,N concentration in tomato leaves,Tygress tomato plants [1]; Zn 0.8 lb/acre,3.5%
same,P concentration in tomato leaves,Tygress tomato plants [1]; Zn 0.8 lb/acre,0.5%
same,Foliar Zn concentration,Tygress tomato plants [1]; Zn 0.8 lb/acre,500 ab ppm
same,Marketable yields compared with the other Zn formulations (in words),Tygress tomato plants [2]; BIOX-Z at a concentration higher than 0.1 lb/acre,statistically similar to the other Zn supplementation treatment formulations
same,Marketable yield,Tygress tomato plants [2]; Zn 0.1 lb/acre,2.3 b lb/plant
same,Marketable yield,Tygress tomato plants [2]; Zn 0.2 lb/acre,3.7 a lb/plant
same,Marketable yield,Tygress tomato plants [2]; Zn 0.4 lb/acre,3.9 a lb/plant
same,Marketable yield,Tygress tomato plants [2]; Zn 0.8 lb/acre,3.8 a lb/plant
same,"Foliar Zn concentration of tomato plants, statement",Tygress tomato plants [3],highest foliar concentration of Zn; also recorded: significantly higher foliar Zn content
same,Foliar B concentration of tomato plants,Tygress tomato plants [3]; product rate as Table 17,59 ppm
same,Foliar Ca concentration of tomato plants,Tygress tomato plants [3]; product rate as Table 17,2.2%
same,Foliar Cu concentration of tomato plants,Tygress tomato plants [3]; product rate as Table 17,338 ppm
same,Foliar Fe concentration of tomato plants,Tygress tomato plants [3]; product rate as Table 17,76 ppm
same,Foliar K concentration of tomato plants,Tygress tomato plants [3]; product rate as Table 17,5.5%
same,Foliar Mg concentration of tomato plants,Tygress tomato plants [3]; product rate as Table 17,0.78%
same,Foliar Mn concentration of tomato plants,Tygress tomato plants [3]; product rate as Table 17,198 ppm
same,Foliar N concentration of tomato plants,Tygress tomato plants [3]; product rate as Table 17,4.7%
same,Foliar P concentration of tomato plants,Tygress tomato plants [3]; product rate as Table 17,0.21%
same,Foliar Zn concentration of tomato plants,Tygress tomato plants [3]; product rate as Table 17,434 a ppm
same,"Foliar Zn concentration of bell pepper plants compared to control, statement",[4],significantly higher foliar concentration of Zn
same,Foliar B concentration of bell pepper plants,[4]; product rate as Table 17,62 ppm
same,Foliar Ca concentration of bell pepper plants,[4]; product rate as Table 17,4.4%
same,Foliar Cu concentration of bell pepper plants,[4]; product rate as Table 17,387 ppm
same,Foliar Fe concentration of bell pepper plants,[4]; product rate as Table 17,121 ppm
same,Foliar K concentration of bell pepper plants,[4]; product rate as Table 17,3.7%
same,Foliar Mg concentration of bell pepper plants,[4]; product rate as Table 17,0.50%
same,Foliar Mn concentration of bell pepper plants,[4]; product rate as Table 17,240 ppm
same,Foliar N concentration of bell pepper plants,[4]; product rate as Table 17,4.2%
same,Foliar P concentration of bell pepper plants,[4]; product rate as Table 17,0.25%
same,Foliar Zn concentration of bell pepper plants,[4]; product rate as Table 17,220 a ppm
same,"Marketable yield, Bell Pepper",[5],8.4 ton/acre
same,B concentration of tomato fruits,Tygress tomato plants [6],20 ppm
same,Ca concentration of tomato fruits,Tygress tomato plants [6],0.2%
same,Cu concentration of tomato fruits,Tygress tomato plants [6],21 ppm
same,Fe concentration of tomato fruits,Tygress tomato plants [6],82 ppm
same,K concentration of tomato fruits,Tygress tomato plants [6],8.0%
same,Mg concentration of tomato fruits,Tygress tomato plants [6],0.36%
same,Mn concentration of tomato fruits,Tygress tomato plants [6],38 ppm
same,N concentration of tomato fruits,Tygress tomato plants [6],4.3%
same,P concentration of tomato fruits,Tygress tomato plants [6],0.63%
same,Zn concentration of tomato fruits,Tygress tomato plants [6],308 ppm
